The source of these data is PubChem BioAssay (NCI).

Test in all cases: NCI tumour cell line growth inhibition, 48 h
The test system of test [1] is 786-0 renal.
The subject of test [2] is CCRF-CEM leukemia.
Test [3] has as its system EKVX NSCLC.
Test [4] has as its system HCT-116 colon.
Test [5] concerns IGROV1 ovarian.
Test [6] concerns NCI-H23 lung.
In test [7] the test system is SK-MEL-2 melanoma.
For test [8], the system named is SN12C renal.
Test [9] deals with U251 CNS.

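Values below derive from 48-hour exposures of cells grown in 96-well plates, with endpoints linearly interpolated between the two concentrations bracketing the appropriate inhibition level. The concentration for full growth arrest is given as TGI.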 Bounds are passed on as bounds.

For the compound `COc1ccc2[nH]c3c4c(cc(-c5ccccc5)c3c2c1)C(=O)N(c1ccccc1)C4=O`, the TGI in test [1] was 29.5 µM; in test [2] it was 15.1 µM; in test [3] it was over 100 µM; in [4], over 100 µM; in test [5], over 100 µM; in [6], 98.6 µM. Further, the TGI is over 100 µM in [7], over 100 µM in [8] and 36.7 µM in test [9].

Take `O=C(Cc1ccccc1)N/N=C(/c1nc2ccc([N+](=O)[O-])cc2[nH]c1=O)C(O)c1ccc(C(O)/C(=N/NC(=O)Cc2ccccc2)c2nc3ccc([N+](=O)[O-])cc3[nH]c2=O)cc1` (centres undefined): the TGI in test [1], in [2], in [3], in test [4], in test [5] and in test [6] was over 100 µM each time. Besides, the TGI in [7] and in test [8] was over 100 µM in each case.

In the case of `O=C1Oc2cc3c(c4cccc1c24)OCN(c1ccccc1)C3`, the TGI in [1] was over 100 µM; in test [2], 86.2 µM; in test [3] it was over 100 µM; in test [4], over 100 µM; in [5], over 100 µM; in [6], over 100 µM. For the same compound, the TGI in test [7], in [8] and in test [9] was over 100 µM in each case.

For the compound `CC(=O)Oc1ccc(Nn2c3ccccc3c3ccccc32)c(C)c1`, the TGI was 41.7 µM in test [1]; over 100 µM in test [2]; over 100 µM in test [4]; 94.2 µM in test [5]; over 100 µM in test [6]; over 100 µM in test [7]. In addition, the TGI in [8] and in test [9] was over 100 µM in each case.

In the case of `O=[N+]([O-])c1ccc(CN=C2NNS(=O)(=O)c3ccccc32)cc1`, the TGI in [1], in test [2], in test [3], in test [4], in test [5] and in test [7] was over 100 µM each time. Moreover, the TGI in test [8] and in [9] was over 100 µM each time.

Take `Cc1ccc(C(=O)N2CCCCC2)cc1N=NN(C)C`: the TGI in test [1], in [2], in [3], in test [4], in test [5] and in test [6] was over 100 µM each time. Also, the TGI in test [7] and in test [8] was over 100 µM throughout.

For `CCCCCC#COC1CC(C)CC[C@@H]1C(C)C` (some centres undefined), the TGI is over 100 µM in [1]; 31.9 µM in test [2]; over 100 µM in test [3]; over 100 µM in test [4]; 79.5 µM in test [5]; over 100 µM in test [6]. Besides, the TGI in test [7], in test [8] and in test [9] was over 100 µM throughout.

As to `O=C(CCN1CCC(CCO)CC1)Nc1ccc2c(c1)C(=O)c1ccc(NC(=O)CCN3CCC(CCO)CC3)cc1C2=O`, the TGI in [1] was 27.2 µM; in [2], 42.5 µM; in test [3] it was over 100 µM; in test [4], 31.2 µM; in [5], over 100 µM; in test [6], over 100 µM. Moreover, the TGI in test [7] is 13.6 µM; in test [8] it was over 100 µM; in [9], 23.8 µM.

Consider `COC1=CC(=O)c2c(cc3c(c2O)-c2c(OC)cc4cc5c(c(O)c4c2OC(=O)CC(C)(O)C3)C(=O)CC(C)(O)C5)C1=O` (centres undefined), for which the TGI amounted to 7.72 µM in [1]; 6.59 µM in test [2]; 5.58 µM in test [3]; 7.58 µM in [4]; 3.97 µM in test [5]; 2.46 µM in test [6]. The TGI stood at 2.71 µM in [7], 3.27 µM in test [8] and 9.92 µM in test [9].

For the compound `O=C1C=CC(=O)c2cc(Sc3ccccc3)c(=O)c(Sc3ccccc3)cc21`, the TGI in test [1] was over 100 µM; in [2], 60.9 µM; in [3], over 100 µM; in test [4] it was over 100 µM; in test [5] it was over 100 µM; in test [6] it was over 100 µM. The TGI in [7], in test [8] and in test [9] was over 100 µM each time.

Turning to `CC1=NC=C(O)c2ccccc2O1`, the TGI in [1], in test [2], in [3], in test [4], in test [5] and in test [6] was over 100 µM throughout. Moreover, the TGI in [7], in test [8] and in test [9] was over 100 µM throughout.

`C=CC(=O)NCNC(=O)C=C`: the TGI in [1], in test [2], in test [3], in test [4], in [5] and in test [6] was over 100 µM throughout. Besides, the TGI in test [7], in test [8] and in test [9] was over 100 µM throughout.
